The text below walks through data of US7160889B2, “Quinazoline compounds” (AstraZeneca AB, priority 2000, dated 2007).

This assay deals with T1, KDR receptor (Homo sapiens, UniProt P35968).
T1 construct: made in house; host or cells: insect cells (e.g. Spodoptera frugiperda Sf21, baculovirus)
Put plainly: In vitro receptor tyrosine kinase inhibition test (a), KDR receptor. In kind it is biochemical. The settings on record: using the KDR receptor. The source says:
(a) In vitro Receptor Tyrosine Kinase Inhibition Test
This assay determines the ability of a test compound to inhibit tyrosine kinase activity. DNA encoding VEGF, FGF or EGF receptor cytoplasmic domains may be obtained by total gene synthesis (Edwards M, International Biotechnology Lab 5(3), 19–25, 1987) or by cloning. These may then be expressed in a suitable expression system to obtain polypeptide with tyrosine kinase activity. […] In the case of the VEGF receptor Flt (Genbank accession number X51602), a 7 kb DNA fragment encoding most of the cytoplasmic domain, commencing with methionine 783 and including the termination codon, described by Shibuya et al (Oncogene, 1990, 5: 519–524), was isolated from cDNA and cloned into a baculovirus transplacement vector (for example pAcYM1 (see The Baculovirus Expression System: A Laboratory Guide, L. A. King and R. D. Possee, Chapman and Hall, 1992) or pAc360 or pBlueBacHis (available from Invitrogen Corporation)). This recombinant construct was co-transfected into insect cells (for example Spodoptera frugiperda 21(Sf21)) with viral DNA (eg Pharmingen BaculoGold) to prepare recombinant baculovirus. […]

T1 sequence (P35968 786-1356 limits assumed): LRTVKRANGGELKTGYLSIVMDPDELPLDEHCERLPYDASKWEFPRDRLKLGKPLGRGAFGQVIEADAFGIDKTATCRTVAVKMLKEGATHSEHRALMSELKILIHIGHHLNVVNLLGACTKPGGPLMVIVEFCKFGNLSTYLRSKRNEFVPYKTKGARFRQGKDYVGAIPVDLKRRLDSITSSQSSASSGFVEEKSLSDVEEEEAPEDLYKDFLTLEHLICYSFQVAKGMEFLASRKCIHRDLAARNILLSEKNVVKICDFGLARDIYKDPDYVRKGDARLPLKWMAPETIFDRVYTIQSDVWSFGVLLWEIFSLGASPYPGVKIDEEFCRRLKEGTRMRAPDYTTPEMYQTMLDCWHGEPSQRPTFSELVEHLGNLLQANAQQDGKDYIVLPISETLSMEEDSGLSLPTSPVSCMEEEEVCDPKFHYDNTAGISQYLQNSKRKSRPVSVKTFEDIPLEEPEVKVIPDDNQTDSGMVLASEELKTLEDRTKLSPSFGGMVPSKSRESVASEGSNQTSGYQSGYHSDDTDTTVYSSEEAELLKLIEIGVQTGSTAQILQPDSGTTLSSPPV

The term IC50 denotes the concentration needed to halve the response being measured. Higher therefore signals a need for much substance. `COc1cc2c(Nc3ccc(Br)cc3F)ncnc2cc1OCC(O)CN1CCN(C)CC1` (stereo not shown) [Example 1] showed an IC50 of 15 to 50 nM.
